Measured values from PMC7228129, “Evaluation of Developmental Toxicity, Developmental Neurotoxicity, and Tissue Dose in Zebrafish Exposed to GenX and Other PFAS” (Environmental Health Perspectives, 2020).
Entries after “also recorded” stand apart in the source; their conditions may differ. Read-outs that look alike come from different tables or passages of the source.

Tests used:
zebrafish [1] = assay: Developmental toxicity (DevTox) assay; format: in vivo, Danio rerio; settings: for Developmental toxicity outcome / EC50: scored 6 dpf; for DevTox assay phenotype: Table 5 summary, this study (some rows also list literature); for EC50: Hill fit
Method: At 0 dpf, zebrafish embryos were bleached as previously described ([Tal et al. 2017]). A single embryo at the dome-to-epiboly stages ([Kimmel et al. 1995]) was placed into each individual well of a 96-well plate containing a 40-μm nylon mesh filter (Millipore, Catalog No. MANMN4010) with 400μL of 10% Hanks’ balanced salt solution (HBSS) per well. Filter inserts containing zebrafish embryos were transferred to 96-well culture trays (Millipore, Catalog No. MAMCS9610) containing 250μL of 10% HBSS ([Westerfield 2007]) and 1μL of 250× working solutions per well. A final concentration of 0.4% DMSO was used for all exposure groups and as a vehicle control. In the case of GenX Free Acid in Study 2 (Figure 1), DI water was used as a vehicle control. Daily, from 1–5 dpf, plates underwent 100% media changes to refresh chemical dosing solutions by blotting (Brandel; Catalog No. FPXLR-196) and transferring mesh inserts containing zebrafish to new bottom plates (Millipore; Catalog No. MAMCS9610). To minimize evaporation, plates were sealed (Biorad; Catalog No. MSA5001) and wrapped with parafilm. Plates were maintained on a 14 h:10 h light cycle at 26.0°C and scored daily for death, malformations, hatching, and swim bladder inflation. At 6 dpf, plates were evaluated by two independent observers and DevTox or DNT assays were performed or media and tissue were collected for analytical chemistry analyses as described below.
In Study 1 (Figure 1), zebrafish were exposed, as described in the “Chemical Exposures” section, to 0.04, 0.1, 0.4, 1.1, 3.1, 9.3, 27.2, or 80.0μM PFOS, PFOA, PFHxS, PFHxA, or ADONA, or 0.4% DMSO. Six 96-well plates were tested with a single chemical concentration included on each microtiter plate. Subsequently, as part of Study 1, zebrafish were exposed to 0.04, 0.1, 0.4, 1.1, 3.1, 9.3, 27.2, or 80.0μM PFESA1, or 0.4% DMSO. In Study 2, GenX Free Acid diluted in DI water was tested by exposing zebrafish to 0.04, 0.1, 0.4, 1.1, 3.1, 9.3, 27.2, or 80.0μM of the compound or DI water. […] Zebrafish were exposed to 1.7, 3.1, 5.5, 9.8, 17.6, 31.4, 56.0, or 100.0μM of PFBS, PFHxS, PFHpS, or PFOS or 0.4% DMSO. Subsequently, zebrafish were exposed to 1.7, 3.1, 5.5, 9.8, 17.6, 31.4, 56.0, or 100.0μM PFPeS, or 0.4% DMSO. Chlorpyrifos was used as positive control for malformations ( 8.0μM ) and lethality ( 80.0μM ) ([Padilla et al. 2012]; [Tal et al. 2017]). To conduct DevTox assay assessments, at 6 dpf, two independent observers evaluated zebrafish larvae for survival, hatching, swim bladder inflation, and malformations, including curved body axis, shortened trunk, pericardial edema, yolk sac edema, necrotic yolk sac, pectoral fin abnormalities and head/jaw abnormalities. Directly after assessments, data were reviewed and, in the case of discrepancies, consensus calls were reached. Toxicity values were assigned to descriptive data (i.e., normal=0 , abnormal=20 , severely abnormal=50 , and dead=100 ), modified from a previously described approach ([Padilla et al. 2012]). Briefly, animals with a single malformation were scored as abnormal, whereas animals with ≥2 malformations were scored as severely abnormal.
For the DevTox assay, a Kruskal-Wallace nonparametric one-way analysis of variance (ANOVA) with a Dunn’s multiple comparison test was used to detect differences between exposure groups (* p<0.05 , ** p<0.0001 ) and LOEC values were determined. If a test for linear trend was significant ( p<0.05 ), with developmental toxicity observed at the highest concentration tested, nonlinear regression was performed with a Hill slope curve fitting for half maximal effective concentration ( EC50 ) value determinations.

[2] = GenX Free Acid stock degradation / stability in DMSO; format: physicochemical; settings: DMSO as diluent/vehicle
zebrafish [3] = settings: Table 5 summary, cited from earlier work
zebrafish [4] = settings: cited from earlier work; for EC50: previously published zebrafish DevTox assay data, read-out: EC50 for developmental toxicity
[5] = Study 1, 0.04–80.0 μM daily 0–5 dpf, 0.4% DMSO
[6] = Danio rerio, Study 1, 0.04–80.0 μM daily 0–5 dpf, 0.4% DMSO
[7] = Danio rerio, Study 3, 1.7–100.0 μM daily 0–5 dpf, 0.4% DMSO

For O=C(O)C(F)(F)C(F)OC(F)(F)C(F)(F)C(F)(F)OC(F)(F)F (centres unmarked) [ADONA, 4,8-Dioxa-3H-perfluorononanoate], which “Developmental toxicity outcome” value (zebrafish [1]; [5]) is on record?
The value was “did not cause concentration-dependent effects on survival or development; also recorded: failed to provoke developmental toxicity or developmental neurotoxicity; also recorded: negative”.

What about the DevTox assay phenotype (zebrafish [1]) of the same compound?
The DevTox assay phenotype was “Negative^a”.

With O=C(O)C(F)(OC(F)(F)C(F)(F)C(F)(F)F)C(F)(F)F (centres unmarked) [GenX Free Acid, Perfluoro-2-propoxypropanoic acid] as the compound, how does the “Stability in DMSO” value [2] read?
Its value is “unstable in DMSO; also recorded: not stable in DMSO”.

And the “Developmental toxicity outcome” value (zebrafish [1]; Study 2, 0.04–80.0 μM in DI water daily 0–5 dpf)?
The value was “negative; also recorded: failed to provoke developmental toxicity or developmental neurotoxicity”.

And the DevTox assay phenotype (zebrafish [1])?
The DevTox assay phenotype was “Negative^a”.

For O=S(=O)(O)C(F)(F)C(F)(F)OC(F)(C(F)(F)F)C(F)(F)OC(F)=C(F)F (centres unmarked) [PFESA1, Perfluoro-3,6-dioxa-4-methyl-7-octene-1-sulfonic acid], which “Developmental toxicity outcome” value (zebrafish [1]; [5]) is on record?
Its value is “did not cause concentration-dependent effects on survival or development; also recorded: failed to provoke developmental toxicity or developmental neurotoxicity; also recorded: negative”.

What about the DevTox assay phenotype (zebrafish [1]) of the same compound?
Its DevTox assay phenotype is “Negative^a”.

Which “Developmental toxicity outcome” value (zebrafish [1]; [5]) does the source give for O=C(O)C(F)(F)C(F)(F)C(F)(F)C(F)(F)C(F)(F)F [PFHxA, Perfluorohexanoic acid] here?
Its value is “did not cause concentration-dependent effects on survival or development; also recorded: no observed developmental toxicity identified at the highest concentration tested”.

And the DevTox assay phenotype (zebrafish [1])?
Its DevTox assay phenotype is “Negative”.

Which DNT assay phenotype (zebrafish [3]; ref Khezri et al. 2017) does the source give for O=S(=O)(O)C(F)(F)C(F)(F)C(F)(F)C(F)(F)C(F)(F)C(F)(F)F [PFHxS, Perfluorohexanesulfonic acid] here?
The DNT assay phenotype was “Negative”.

And the EC50 (zebrafish [4]; ref Padilla et al. 2012)?
The EC50 was 116 µM.

And the EC50 (zebrafish [4]; ref Truong et al. 2014)?
The EC50 was 115 µM.

What about the EC50 (zebrafish [1]; [6]) of the same compound?
Its EC50 is 92.7 µM.

What about the EC50 (zebrafish [1]; [7]) of the same compound?
The EC50 was 228 µM.

And the “Developmental toxicity outcome” value (zebrafish [1]; [5])?
Its value is “same morphological phenotypes as PFOS”.

And the DevTox assay phenotype (zebrafish [1])?
Its DevTox assay phenotype is “Positive”.

Which results are given for O=C(O)C(F)(F)C(F)(F)C(F)(F)C(F)(F)C(F)(F)C(F)(F)C(F)(F)F [PFOA, Perfluoro-n-octanoic acid]?
DNT assay phenotype (zebrafish [3]; ref Ulhaq et al. 2013b): Hyperactivity; DevTox assay phenotype (zebrafish [4]; Table 5 summary, zebrafish, ref Hagenaars et al. 2011, Jantzen et al. 2016, Ulhaq et al. 2013a): Positive; Developmental toxicity outcome (zebrafish [1]; [5]): did not cause concentration-dependent effects on survival or development; also recorded: negative; DevTox assay phenotype (zebrafish [1]): Negative

What does the source list for O=S(=O)(O)C(F)(F)C(F)(F)C(F)(F)C(F)(F)C(F)(F)C(F)(F)C(F)(F)C(F)(F)F [PFOS, Perfluorooctanesulfonic acid]?
DNT assay phenotype (zebrafish [3]; ref Ulhaq et al. 2013b): Hypoactivity; EC50 (zebrafish [4]; ref Padilla et al. 2012): 42.3 µM; EC50 (zebrafish [4]; ref Truong et al. 2014): 3.5 µM; EC50 (zebrafish [1]; [6]): 7.5 µM; EC50 (zebrafish [1]; [7]): 28.2 µM; Developmental toxicity outcome (zebrafish [1]; [5]): failed swim bladder inflation and ventroflexion of the tail; EC50 (zebrafish [1]; [5]): 7.54 µM; EC50 (zebrafish [1]; Study 3, 1.7–100.0 μM daily 0–5 dpf, 0.4% DMSO): 28.2 µM; DevTox assay phenotype (zebrafish [1]): Positive
